{
  "source": "ChEMBL document CHEMBL1201862",
  "about": "“PubChem BioAssay data set” (2004)",
  "assay_in_all_cases": "inhibition of tumour cell growth, NCI panel, 48 h",
  "key": {"[1]": {"test_system": "OVCAR-5"}, "[2]": {"test_system": "SN12C"}, "[3]": {"test_system": "LXFL 529"}, "[4]": {"test_system": "DMS-114"}, "[5]": {"test_system": "SK-MEL-2"}, "[6]": {"test_system": "HOP-92"}, "[7]": {"test_system": "NCI-H226"}, "[8]": {"test_system": "MOLT-4"}, "[9]": {"test_system": "EKVX"}, "[10]": {"test_system": "NCI-H522"}, "[11]": {"test_system": "RPMI-8226"}, "[12]": {"test_system": "OVCAR-4"}, "[13]": {"test_system": "A549"}, "[14]": {"test_system": "SK-MEL-5"}, "[15]": {"test_system": "LOX IMVI"}, "[16]": {"test_system": "SF-539"}, "[17]": {"test_system": "NCI-H460"}, "[18]": {"test_system": "HCC 2998"}, "[19]": {"test_system": "SW-620"}, "[20]": {"test_system": "KM12"}, "[21]": {"test_system": "TK-10"}, "[22]": {"test_system": "OVCAR-8"}, "[23]": {"test_system": "RXF 393"}, "[24]": {"test_system": "OVCAR-3"}, "[25]": {"test_system": "SNB-75"}, "[26]": {"test_system": "U-251"}, "[27]": {"test_system": "M19-MEL"}, "[28]": {"test_system": "HOP-18"}, "[29]": {"test_system": "HT-29"}, "[30]": {"test_system": "IGROV-1"}, "[31]": {"test_system": "DLD-1"}, "[32]": {"test_system": "M14"}, "[33]": {"test_system": "CAKI-1"}, "[34]": {"test_system": "UACC-257"}, "[35]": {"test_system": "SNB-19"}, "[36]": {"test_system": "Malme-3M"}, "[37]": {"test_system": "SK-MEL-28"}, "[38]": {"test_system": "COLO 205"}, "[39]": {"test_system": "UACC-62"}, "[40]": {"test_system": "HL-60"}, "[41]": {"test_system": "KM-20L2"}, "[42]": {"test_system": "SK-OV-3"}, "[43]": {"test_system": "UO-31"}, "[44]": {"test_system": "RXF 631"}, "[45]": {"test_system": "786-0"}, "[46]": {"test_system": "HCT-15"}, "[47]": {"test_system": "XF498"}, "[48]": {"test_system": "HCT-116"}, "[49]": {"test_system": "SNB-78"}, "[50]": {"test_system": "ACHN"}, "[51]": {"test_system": "HOP-62"}, "[52]": {"test_system": "SF-295"}, "[53]": {"test_system": "SR"}, "[54]": {"test_system": "DMS-273"}, "[55]": {"test_system": "K562"}, "[56]": {"test_system": "CCRF-CEM"}, "[57]": {"test_system": "NCI-H23"}},
  "note": "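Compound exposure: 48 hours, 5 concentrations, 96-well plates. GI50: concentration for 50% inhibition of growth.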 Active and inactive are the calls of the source. No stated cut-off is given here; in the data, active = GI50 up to about 1.1 µM and inactive = higher.",
  "data": [
    {"smiles": "O=C1CCC(=O)c2c1c(O)c1ccncc1c2O", "values": [
      {"measurement": "GI50", "setting": "[1]", "result": "23 µM (inactive)"},
      {"measurement": "GI50", "setting": "[2]", "result": "17.5 µM (inactive)"},
      {"measurement": "GI50", "setting": "[3]", "result": "16.6 µM (inactive)"},
      {"measurement": "GI50", "setting": "[4]", "result": "12 µM (inactive)"},
      {"measurement": "GI50", "setting": "[5]", "result": "13.6 µM (inactive)"},
      {"measurement": "GI50", "setting": "[6]", "result": "22.8 µM (inactive)"},
      {"measurement": "GI50", "setting": "[7]", "result": "20.6 µM (inactive)"},
      {"measurement": "GI50", "setting": "[8]", "result": "18.2 µM (inactive)"},
      {"measurement": "GI50", "setting": "[9]", "result": "27.8 µM (inactive)"},
      {"measurement": "GI50", "setting": "[10]", "result": "12 µM (inactive)"},
      {"measurement": "GI50", "setting": "[11]", "result": "17.5 µM (inactive)"},
      {"measurement": "GI50", "setting": "[12]", "result": "12.9 µM (inactive)"},
      {"measurement": "GI50", "setting": "[13]", "result": "20.4 µM (inactive)"},
      {"measurement": "GI50", "setting": "[14]", "result": "11.4 µM (inactive)"},
      {"measurement": "GI50", "setting": "[15]", "result": "13.8 µM (inactive)"},
      {"measurement": "GI50", "setting": "[16]", "result": "15.6 µM (inactive)"},
      {"measurement": "GI50", "setting": "[17]", "result": "15.1 µM (inactive)"},
      {"measurement": "GI50", "setting": "[18]", "result": "15.4 µM (inactive)"},
      {"measurement": "GI50", "setting": "[19]", "result": "16.4 µM (inactive)"},
      {"measurement": "GI50", "setting": "[20]", "result": "16.3 µM (inactive)"},
      {"measurement": "GI50", "setting": "[21]", "result": "18.4 µM (inactive)"},
      {"measurement": "GI50", "setting": "[22]", "result": "10 µM (inactive)"},
      {"measurement": "GI50", "setting": "[23]", "result": "21 µM (inactive)"},
      {"measurement": "GI50", "setting": "[24]", "result": "2.88 µM (inactive)"},
      {"measurement": "GI50", "setting": "[25]", "result": "18.7 µM (inactive)"},
      {"measurement": "GI50", "setting": "[26]", "result": "23.9 µM (inactive)"},
      {"measurement": "GI50", "setting": "[27]", "result": "2.92 µM (inactive)"},
      {"measurement": "GI50", "setting": "[28]", "result": "26.9 µM (inactive)"},
      {"measurement": "GI50", "setting": "[29]", "result": "6.62 µM (inactive)"},
      {"measurement": "GI50", "setting": "[30]", "result": "15 µM (inactive)"},
      {"measurement": "GI50", "setting": "[31]", "result": "13.7 µM (inactive)"},
      {"measurement": "GI50", "setting": "[32]", "result": "15.6 µM (inactive)"},
      {"measurement": "GI50", "setting": "[33]", "result": "23.9 µM (inactive)"},
      {"measurement": "GI50", "setting": "[34]", "result": "7.5 µM (inactive)"},
      {"measurement": "GI50", "setting": "[35]", "result": "26 µM (inactive)"},
      {"measurement": "GI50", "setting": "[36]", "result": "16 µM (inactive)"},
      {"measurement": "GI50", "setting": "[37]", "result": "20.5 µM (inactive)"},
      {"measurement": "GI50", "setting": "[38]", "result": "7.94 µM (inactive)"},
      {"measurement": "GI50", "setting": "[39]", "result": "6.4 µM (inactive)"},
      {"measurement": "GI50", "setting": "[40]", "result": "7.94 µM (inactive)"},
      {"measurement": "GI50", "setting": "[41]", "result": "20.9 µM (inactive)"},
      {"measurement": "GI50", "setting": "[42]", "result": "36.5 µM (inactive)"},
      {"measurement": "GI50", "setting": "[43]", "result": "15.5 µM (inactive)"},
      {"measurement": "GI50", "setting": "[44]", "result": "25.4 µM (inactive)"},
      {"measurement": "GI50", "setting": "[45]", "result": "15.7 µM (inactive)"},
      {"measurement": "GI50", "setting": "[46]", "result": 12.9, "unit": "µM"},
      {"measurement": "GI50", "setting": "[47]", "result": "18.4 µM (inactive)"},
      {"measurement": "GI50", "setting": "[48]", "result": "14.7 µM (inactive)"},
      {"measurement": "GI50", "setting": "[49]", "result": "23.7 µM (inactive)"},
      {"measurement": "GI50", "setting": "[50]", "result": "15.3 µM (inactive)"},
      {"measurement": "GI50", "setting": "[51]", "result": "30.9 µM (inactive)"},
      {"measurement": "GI50", "setting": "[52]", "result": "18 µM (inactive)"},
      {"measurement": "GI50", "setting": "[53]", "result": "13 µM (inactive)"},
      {"measurement": "GI50", "setting": "[54]", "result": "17.3 µM (inactive)"},
      {"measurement": "GI50", "setting": "[55]", "result": "18.8 µM (inactive)"},
      {"measurement": "GI50", "setting": "[56]", "result": "14.8 µM (inactive)"},
      {"measurement": "GI50", "setting": "[57]", "result": "16.4 µM (inactive)"}
    ]}
  ]
}
